In patent US20180237713A1, “Ionic Liquid, Lubricant, and Magnetic Recording Medium” (priority 2015, published 2018):

Assay: Thermal stability measurement (TG/DTA weight reduction temperature)
Conditions: for 5%, 10%, 20% weight reduction temperatures (thermal stability) higher than perfluoropolyether Z-DOL (Comparative Example 11C) by: difference to Z-DOL; for 5%, 10%, 20% weight reduction temperatures (thermal stability) higher than Z-TETRAOL (Comparative Example 12C) by: difference to Z-TETRAOL; for Weight reduction temperature 5% / Weight reduction temperature 10% / Weight reduction temperature 20%: TG/DTA, air 200 mL/min, 10° C./min, 30° C. to 600° C.; for Thermal stability improved compared with perfluoropolyether Z-DOL or Z-TETRAOL by: difference to Z-DOL or Z-TETRAOL

| Compound | Thermal stability compared to perfluoropolyether Z-DOL or Z-TETRAOL | 5%, 10%, 20% weight reduction temperatures (thermal stability) higher than perfluoropolyether Z-DOL (Comparative Example 11C) by | 5%, 10%, 20% weight reduction temperatures (thermal stability) higher than Z-TETRAOL (Comparative Example 12C) by | Weight reduction temperature 5% | Weight reduction temperature 10% | Weight reduction temperature 20% | Thermal stability improved compared with perfluoropolyether Z-DOL or Z-TETRAOL by |
| --- | --- | --- | --- | --- | --- | --- | --- |
| CCCCCCCCCCCCCCCCCCN1CCCN2CCCN=C12.O=S1(=O)NS(=O)(=O)C(F)(F)C(F)(F)C1(F)F | high |  |  |  |  |  |  |
| CCCCCCCCCCCCCCCCCC[n+]1ccn(CCC(F)(F)C(F)(F)C(F)(F)C(F)(F)C(F)(F)C(F)(F)C(F)(F)C(F)(F)F)c1.O=S(=O)([N-]S(=O)(=O)C(F)(F)C(F)(F)C(F)(F)C(F)(F)F)C(F)(F)C(F)(F)C(F)(F)C(F)(F)F |  | ≥ 150 °C | ≥ 90 °C |  |  |  |  |
| heptadecafluorooctanesulfonic acid-7-octadecyl-1,5,7-triazabicyclo[4.4.0]-5-decenium | high |  |  | 356.1 °C | 380.4 °C | 401.5 °C |  |
| CCCCCCCCCCCCCCCCCC[N+]1(CCCC)CCCC1.O=S(=O)([N-]S(=O)(=O)C(F)(F)C(F)(F)C(F)(F)C(F)(F)F)C(F)(F)C(F)(F)C(F)(F)C(F)(F)F |  |  |  |  |  |  | ≥ 90 °C |
| nonafluorobutanesulfonic acid-N-octadecylpyrrolidinium |  |  |  | 339.4 °C | 359.0 °C | 377.3 °C | ≥ 95 °C |
| CCCCCCCCCCCCCCCCCCn1cc[n+](CCC[n+]2ccn(CCCCCCCCCCCCCCCCCC)c2)c1.O=S(=O)([N-]S(=O)(=O)C(F)(F)C(F)(F)C(F)(F)C(F)(F)F)C(F)(F)C(F)(F)C(F)(F)C(F)(F)F.O=S(=O)([N-]S(=O)(=O)C(F)(F)C(F)(F)C(F)(F)C(F)(F)F)C(F)(F)C(F)(F)C(F)(F)C(F)(F)F |  |  |  | 352.3 °C | 381.9 °C | 401.4 °C |  |
| CCCCCCCCCCCCCCCCCC[N+]1=C2CCCCCN2CCC1.O=S(=O)([O-])C(F)(F)F |  | ≥ 140 °C | ≥ 80 °C | 319.2 °C | 346.6 °C | 389.0 °C |  |
| CCCCCCCCCCCCCCCCCCN1CCCC1.O=S(=O)(NS(=O)(=O)C(F)(F)C(F)(F)C(F)(F)C(F)(F)F)C(F)(F)C(F)(F)C(F)(F)C(F)(F)F |  |  |  |  |  |  | ≥ 70 °C |
| CCCCCCCCCCCCCCCCCCN1CCCC1.O=S1(=O)NS(=O)(=O)C(F)(F)C(F)(F)C1(F)F | high |  |  |  |  |  |  |
| CCCCCCCCCCCCCCCCCC[n+]1ccn(CCC(F)(F)C(F)(F)C(F)(F)C(F)(F)C(F)(F)C(F)(F)C(F)(F)C(F)(F)F)c1.O=S(=O)([N-]S(=O)(=O)C(F)(F)C(F)(F)C(F)(F)C(F)(F)F)C(F)(F)C(F)(F)C(F)(F)C(F)(F)F [Ex. 8A, bis(nonafluorobutanesulfonyl)imide-1-1′H,1′H,2′H,2′H-heptadecafluorodecyl-3-octadecylimidazolium] |  |  |  | 335.8 °C | 358.5 °C | 377.7 °C |  |
| heptadecafluorooctanesulfonic acid-6-octadecyl-1,8-diazabicyclo[5.4.0]-7-undecenium | high |  |  | 361.9 °C | 382.7 °C | 403.5 °C |  |
| CCCCCCCCCCCCCCCCCCC1CCCCN2CCCN=C12.O=S1(=O)NS(=O)(=O)C(F)(F)C(F)(F)C1(F)F (stereo not drawn) | high |  |  |  |  |  |  |
